Laboratory results reported in patent US9340590B2 (priority 2011, dated 2016).
Read-outs that look alike come from different tables or passages of the source. Positions of bridges follow the written chain, without caps; N, C: chain ends. Non-standard residues stand in square brackets, D forms with d. Residues, ends and D or L forms follow the SMILES beside them. 3Pal = N[C@@H](Cc1cccnc1)C(=O)O

Key:
Experiment in all cases: cell-based
hNav1.7 = hNav1.7 (Homo sapiens, UniProt Q15858); assay type: cell-based; conditions: IonWorks Quattro, read-out: IWQ Use Nav1.7
hNav1.3 = hNav1.3 (Homo sapiens, UniProt Q9NY46); conditions: IonWorks Quattro, read-out: IWQ Use Nav1.3
hNav1.5 = hNav1.5 (Homo sapiens, UniProt Q14524); conditions: IonWorks Quattro, read-out: IWQ Use Nav1.5
Sequence of hNav1.5 (Q14524 whole entry, looked up): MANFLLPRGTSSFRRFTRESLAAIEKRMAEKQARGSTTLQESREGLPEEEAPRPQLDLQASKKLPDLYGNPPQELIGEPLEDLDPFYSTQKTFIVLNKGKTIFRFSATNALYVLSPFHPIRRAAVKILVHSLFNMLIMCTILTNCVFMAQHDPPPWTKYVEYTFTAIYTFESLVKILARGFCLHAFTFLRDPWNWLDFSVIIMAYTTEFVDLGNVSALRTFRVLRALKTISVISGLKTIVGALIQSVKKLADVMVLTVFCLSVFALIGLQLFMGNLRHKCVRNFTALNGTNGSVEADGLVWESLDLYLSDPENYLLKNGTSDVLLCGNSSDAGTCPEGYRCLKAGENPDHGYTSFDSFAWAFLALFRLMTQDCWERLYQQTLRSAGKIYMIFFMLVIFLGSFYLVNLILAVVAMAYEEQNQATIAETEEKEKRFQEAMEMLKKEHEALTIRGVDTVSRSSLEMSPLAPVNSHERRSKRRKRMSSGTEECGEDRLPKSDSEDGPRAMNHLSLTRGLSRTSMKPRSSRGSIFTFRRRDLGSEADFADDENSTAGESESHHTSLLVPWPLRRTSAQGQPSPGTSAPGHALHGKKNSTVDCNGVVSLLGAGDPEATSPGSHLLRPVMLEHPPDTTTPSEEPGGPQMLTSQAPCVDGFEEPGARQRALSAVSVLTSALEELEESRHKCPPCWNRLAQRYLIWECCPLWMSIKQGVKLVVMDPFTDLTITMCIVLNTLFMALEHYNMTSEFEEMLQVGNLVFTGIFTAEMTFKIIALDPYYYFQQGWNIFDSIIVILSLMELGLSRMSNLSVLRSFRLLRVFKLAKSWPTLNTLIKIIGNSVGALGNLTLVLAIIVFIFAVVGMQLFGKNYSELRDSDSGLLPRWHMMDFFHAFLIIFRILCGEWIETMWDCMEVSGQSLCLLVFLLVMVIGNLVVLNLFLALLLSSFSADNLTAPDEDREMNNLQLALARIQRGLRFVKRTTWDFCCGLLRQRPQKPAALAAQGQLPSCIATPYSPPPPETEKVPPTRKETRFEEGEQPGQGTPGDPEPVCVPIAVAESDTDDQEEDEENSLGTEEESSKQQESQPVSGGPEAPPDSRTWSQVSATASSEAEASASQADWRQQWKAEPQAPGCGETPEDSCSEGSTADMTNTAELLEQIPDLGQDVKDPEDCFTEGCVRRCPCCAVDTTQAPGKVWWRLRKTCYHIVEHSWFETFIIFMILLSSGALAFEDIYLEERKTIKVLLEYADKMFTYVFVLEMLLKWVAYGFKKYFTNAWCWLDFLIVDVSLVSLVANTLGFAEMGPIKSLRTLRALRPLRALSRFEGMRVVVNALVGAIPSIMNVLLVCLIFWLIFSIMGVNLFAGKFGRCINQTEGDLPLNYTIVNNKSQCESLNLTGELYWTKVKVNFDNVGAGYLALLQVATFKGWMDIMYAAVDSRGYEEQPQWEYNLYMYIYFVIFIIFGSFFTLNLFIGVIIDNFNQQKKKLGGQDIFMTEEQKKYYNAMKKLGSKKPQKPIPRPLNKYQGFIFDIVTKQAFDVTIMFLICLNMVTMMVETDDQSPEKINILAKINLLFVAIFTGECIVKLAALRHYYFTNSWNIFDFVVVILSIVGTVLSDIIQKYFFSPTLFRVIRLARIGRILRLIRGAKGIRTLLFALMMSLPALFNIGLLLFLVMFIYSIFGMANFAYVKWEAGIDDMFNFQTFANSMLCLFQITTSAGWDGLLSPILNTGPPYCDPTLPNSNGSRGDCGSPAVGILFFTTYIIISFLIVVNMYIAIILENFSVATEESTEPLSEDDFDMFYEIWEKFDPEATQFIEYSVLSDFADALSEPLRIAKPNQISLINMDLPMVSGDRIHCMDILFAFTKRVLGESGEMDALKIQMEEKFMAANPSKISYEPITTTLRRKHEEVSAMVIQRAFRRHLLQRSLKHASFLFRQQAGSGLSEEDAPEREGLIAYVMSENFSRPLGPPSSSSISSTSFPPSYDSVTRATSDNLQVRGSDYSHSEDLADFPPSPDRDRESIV

Sequence of hNav1.3 (Q9NY46 whole entry, looked up): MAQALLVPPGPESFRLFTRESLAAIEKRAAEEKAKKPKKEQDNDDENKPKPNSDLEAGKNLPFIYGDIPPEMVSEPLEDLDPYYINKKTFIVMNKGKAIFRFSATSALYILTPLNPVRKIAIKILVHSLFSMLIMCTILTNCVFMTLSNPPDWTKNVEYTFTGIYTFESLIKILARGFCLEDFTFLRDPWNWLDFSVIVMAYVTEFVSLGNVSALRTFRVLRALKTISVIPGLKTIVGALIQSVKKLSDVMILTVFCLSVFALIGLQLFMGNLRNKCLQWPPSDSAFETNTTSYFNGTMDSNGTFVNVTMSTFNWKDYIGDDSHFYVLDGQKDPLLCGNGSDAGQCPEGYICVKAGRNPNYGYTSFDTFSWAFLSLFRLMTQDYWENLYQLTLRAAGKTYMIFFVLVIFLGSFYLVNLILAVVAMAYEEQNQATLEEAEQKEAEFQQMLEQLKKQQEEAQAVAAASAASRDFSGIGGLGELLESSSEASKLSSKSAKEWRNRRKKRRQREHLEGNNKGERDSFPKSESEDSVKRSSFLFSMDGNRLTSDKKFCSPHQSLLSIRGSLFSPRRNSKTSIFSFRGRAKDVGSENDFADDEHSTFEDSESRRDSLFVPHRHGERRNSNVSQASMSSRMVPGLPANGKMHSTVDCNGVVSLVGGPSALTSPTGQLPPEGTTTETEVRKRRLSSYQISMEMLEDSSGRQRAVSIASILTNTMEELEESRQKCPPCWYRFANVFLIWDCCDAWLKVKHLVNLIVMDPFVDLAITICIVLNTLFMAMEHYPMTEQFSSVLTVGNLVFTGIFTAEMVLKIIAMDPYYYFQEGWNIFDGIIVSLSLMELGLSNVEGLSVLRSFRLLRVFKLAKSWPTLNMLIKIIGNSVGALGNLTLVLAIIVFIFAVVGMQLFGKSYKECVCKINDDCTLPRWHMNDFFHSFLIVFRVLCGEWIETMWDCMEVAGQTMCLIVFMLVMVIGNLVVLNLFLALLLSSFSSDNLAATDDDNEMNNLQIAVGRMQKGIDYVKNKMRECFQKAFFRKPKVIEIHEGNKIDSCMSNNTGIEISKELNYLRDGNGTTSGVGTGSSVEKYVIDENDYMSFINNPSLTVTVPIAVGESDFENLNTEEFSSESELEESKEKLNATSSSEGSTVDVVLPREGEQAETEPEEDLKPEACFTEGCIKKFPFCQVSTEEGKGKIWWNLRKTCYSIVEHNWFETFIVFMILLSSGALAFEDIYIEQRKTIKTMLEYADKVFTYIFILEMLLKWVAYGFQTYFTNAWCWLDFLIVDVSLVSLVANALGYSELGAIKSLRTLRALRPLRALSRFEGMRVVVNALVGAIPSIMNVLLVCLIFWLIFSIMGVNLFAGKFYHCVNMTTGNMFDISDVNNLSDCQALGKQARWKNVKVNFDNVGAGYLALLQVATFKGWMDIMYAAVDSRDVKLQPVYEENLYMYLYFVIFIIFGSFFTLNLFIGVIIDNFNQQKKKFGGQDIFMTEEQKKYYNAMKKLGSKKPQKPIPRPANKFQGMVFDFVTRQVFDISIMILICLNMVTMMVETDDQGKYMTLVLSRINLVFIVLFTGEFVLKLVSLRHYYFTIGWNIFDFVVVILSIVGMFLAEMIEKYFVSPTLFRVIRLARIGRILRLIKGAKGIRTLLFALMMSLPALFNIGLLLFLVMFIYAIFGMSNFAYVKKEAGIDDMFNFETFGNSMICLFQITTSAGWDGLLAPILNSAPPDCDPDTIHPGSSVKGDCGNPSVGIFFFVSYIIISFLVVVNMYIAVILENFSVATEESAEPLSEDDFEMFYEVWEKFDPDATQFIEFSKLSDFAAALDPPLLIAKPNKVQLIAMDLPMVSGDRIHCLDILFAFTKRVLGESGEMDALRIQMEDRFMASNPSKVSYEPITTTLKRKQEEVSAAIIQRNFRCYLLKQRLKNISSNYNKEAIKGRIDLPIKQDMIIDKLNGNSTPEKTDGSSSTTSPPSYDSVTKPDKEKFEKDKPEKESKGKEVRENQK

| SMILES | IC50 (hNav1.7; Use) | IC50 (hNav1.3; Use) | IC50 (hNav1.5; Use) | IC50 (hNav1.7; use-dependent block, hNav1.7) | IC50 (hNav1.3; use-dependent block, hNav1.3) | IC50 (hNav1.5; use-dependent block, hNav1.5) |
| --- | --- | --- | --- | --- | --- | --- |
| CC[C@H](C)[C@@H]1NC(=O)[C@@H]2CSSC[C@@H]3NC(=O)[C@H]([C@@H](C)O)NC(=O)[C@H](CC(C)C)NC(=O)[C@H](CC(N)=O)NC(=O)[C@@H]4CCCN4C(=O)[C@H](CCCNC(=N)N)NC(=O)[C@H](CSSC[C@H](NC(=O)[C@@H](N)CC(=O)O)C(=O)N[C@@H](CC(C)C)C(=O)NCC(=O)N[C@@H](Cc4ccccc4)C(=O)N[C@@H](CCSC)C(=O)N[C@@H](CCCNC(=N)N)C(=O)N[C@@H](CCCCN)C(=O)N2)NC(=O)[C@H](CSSC[C@@H](C(=O)N[C@@H](CCCCN)C(=O)N[C@@H](Cc2ccc(O)cc2)C(=O)N[C@H](C(=O)N[C@@H](Cc2ccccc2)C(N)=O)C(C)C)NC(=O)[C@H](Cc2c[nH]c4ccccc24)NC(=O)[C@H](CCCCN)NC(=O)[C@H](Cc2c[nH]cn2)NC(=O)[C@H]([C@@H](C)O)NC(=O)[C@H](CCCNC(=N)N)NC(=O)[C@H](CO)NC3=O)NC(=O)[C@H](CCCCN)NC(=O)[C@H](CC(=O)O)NC(=O)[C@H](CC(N)=O)NC(=O)[C@H](CC(=O)O)NC(=O)[C@@H]2CCCN2C1=O [compound 329] (H-DCLGFMRKCIPDNDKCCRPNLTCSRTHKWCKYVF-NH2; disulfide 2-17, 9-23, 16-30) | 0.12 µM | 0.08 µM | 4.59 µM | – | – | – |
| CC[C@H](C)[C@@H]1NC(=O)[C@@H]2CSSC[C@@H]3NC(=O)[C@H](C(C)C)NC(=O)[C@H](CC(C)C)NC(=O)[C@H](CC(N)=O)NC(=O)[C@@H]4CCCN4C(=O)[C@H](CCCNC(=N)N)NC(=O)[C@H](CSSC[C@H](NC(=O)[C@@H](N)CC(=O)O)C(=O)N[C@@H](CC(C)C)C(=O)NCC(=O)N[C@@H](C)C(=O)N[C@@H](CC(C)C)C(=O)N[C@@H](CCCNC(=N)N)C(=O)N[C@@H](CCCCN)C(=O)N2)NC(=O)[C@H](CSSC[C@@H](C(=O)N[C@@H](CCCCN)C(=O)N[C@@H](Cc2ccc(O)cc2)C(=O)N[C@H](C(=O)N[C@@H](Cc2ccccc2)C(=O)O)C(C)C)NC(=O)[C@H](Cc2c[nH]c4ccccc24)NC(=O)[C@H](CCCNC(=N)N)NC(=O)[C@H](Cc2c[nH]cn2)NC(=O)[C@H]([C@@H](C)O)NC(=O)[C@H](CCCNC(=N)N)NC(=O)[C@H](CO)NC3=O)NC(=O)[C@H](CCCCN)NC(=O)[C@H](CC(=O)O)NC(=O)[C@H](Cc2ccc(O)cc2)NC(=O)[C@H](CC(=O)O)NC(=O)[C@@H]2CCCN2C1=O [compound 873] (H-DCLGALRKCIPDYDKCCRPNLVCSRTHRWCKYVF-OH; disulfide 2-17, 9-23, 16-30) | – | – | – | 4.8 µM | > 5 µM | > 5 µM |
| CC[C@H](C)[C@@H]1NC(=O)[C@@H]2CSSC[C@@H]3NC(=O)[C@H](C(C)C)NC(=O)[C@H](CC(C)C)NC(=O)[C@H](CC(N)=O)NC(=O)[C@@H]4CCCN4C(=O)[C@H](CCCNC(=N)N)NC(=O)[C@H](CSSC[C@H](NC(=O)[C@@H](N)CC(=O)O)C(=O)N[C@@H](CC(C)C)C(=O)NCC(=O)N[C@@H](C)C(=O)N[C@@H](CCSC)C(=O)N[C@@H](CCCNC(=N)N)C(=O)N[C@@H](CCCCN)C(=O)N2)NC(=O)[C@H](CSSC[C@@H](C(=O)N[C@@H](CCCCN)C(=O)N[C@@H](Cc2ccc(O)cc2)C(=O)N[C@H](C(=O)N[C@@H](Cc2ccccc2)C(N)=O)C(C)C)NC(=O)[C@H](Cc2c[nH]c4ccccc24)NC(=O)[C@H](Cc2cccnc2)NC(=O)[C@H](Cc2c[nH]cn2)NC(=O)[C@H]([C@@H](C)O)NC(=O)[C@H](CCCNC(=N)N)NC(=O)[C@H](CO)NC3=O)NC(=O)[C@H](CCCCN)NC(=O)[C@H](CC(=O)O)NC(=O)[C@H](CC(N)=O)NC(=O)[C@H](CC(=O)O)NC(=O)[C@@H]2CCCN2C1=O [compound 740] (H-DCLGAMRKCIPDNDKCCRPNLVCSRTH[3Pal]WCKYVF-NH2; disulfide 2-17, 9-23, 16-30) | – | – | – | 1.5 µM | > 5 µM | 31.1 µM |
